Test results reported in patent US20220009920A1 (GB005, Inc., priority 2020, published 2022).

Key:
Assay in all cases: Large panel kinase profiling
Type in all cases: biochemical
Settings in all cases: 1 μM test article, 1 mM ATP
AKT1 = AKT1 (Homo sapiens, UniProt P31749)
In short: (§1)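 At 30° C., kinases turned over a CSox-Sensor peptide substrate with 1 mM ATP while 1 μM test article was present. Progress was followed by kinetic fluorescence readings.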

CDK3/E1 = target: T1, CDK3/E1 (Homo sapiens, UniProt Q00526)
T1 construct: AssayQuant Technologies, Inc. (ran the panel)
In short: as §1

CDK4/D3 = target: T2, CDK4/D3 (Homo sapiens, UniProt P11802)
T2 construct: AssayQuant Technologies, Inc. (ran the panel)
In short: as §1

DAPK3 = target: T3, DAPK3 (Homo sapiens, UniProt O43293)
T3 construct: AssayQuant Technologies, Inc. (service laboratory)
In short: as §1

EIF2AK2/PKR = target: T4, EIF2AK2/PKR (Homo sapiens, UniProt P19525)
T4 construct: AssayQuant Technologies, Inc. (service laboratory)
In short: as §1

GRK6 = target: T5, GRK6 (Homo sapiens, UniProt P43250)
T5 construct: AssayQuant Technologies, Inc. (service provider)
In short: as §1

GSK3A = target: T6, GSK3A (Homo sapiens, UniProt P49840)
T6 construct: AssayQuant Technologies, Inc. (service provider)
In short: as §1

JAK2(JH1) = target: T7, JAK2(JH1) (Homo sapiens, UniProt O60674)
T7 construct: JAK2(JH1)
In short: as §1

MAP3K2 = target: T8, MAP3K2 (Homo sapiens, UniProt Q9Y2U5)
T8 construct: AssayQuant Technologies, Inc. (service provider)
T8 sequence (Q9Y2U5 1-619): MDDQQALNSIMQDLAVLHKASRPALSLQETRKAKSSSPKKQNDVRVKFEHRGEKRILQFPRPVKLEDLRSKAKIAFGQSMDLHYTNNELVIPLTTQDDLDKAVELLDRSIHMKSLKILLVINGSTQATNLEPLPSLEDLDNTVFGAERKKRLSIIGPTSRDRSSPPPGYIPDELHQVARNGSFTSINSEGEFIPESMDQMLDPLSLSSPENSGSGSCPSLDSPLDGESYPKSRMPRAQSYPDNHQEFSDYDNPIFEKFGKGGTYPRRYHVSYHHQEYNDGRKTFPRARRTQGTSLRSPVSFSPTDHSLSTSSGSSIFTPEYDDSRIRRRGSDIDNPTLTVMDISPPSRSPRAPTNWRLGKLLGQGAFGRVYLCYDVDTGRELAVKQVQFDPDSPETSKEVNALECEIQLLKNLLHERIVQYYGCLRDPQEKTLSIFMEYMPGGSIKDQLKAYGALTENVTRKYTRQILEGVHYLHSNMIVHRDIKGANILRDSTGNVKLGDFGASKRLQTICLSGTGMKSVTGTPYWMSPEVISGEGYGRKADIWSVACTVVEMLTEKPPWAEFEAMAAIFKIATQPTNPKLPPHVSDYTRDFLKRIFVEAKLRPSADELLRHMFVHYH
In short: as §1

MAPK11/P38B = target: T9, MAPK11/P38B (Homo sapiens, UniProt Q15759)
T9 construct: AssayQuant Technologies, Inc. (service provider)
In short: as §1

PTK2 = PTK2 (Homo sapiens, UniProt Q05397)
In short: as §1

SK2 = target: T10, SK2 (Homo sapiens, UniProt Q9H0K1)
T10 construct: AssayQuant Technologies, Inc. (contract assay)
In short: as §1

TAOK3 = target: T11, TAOK3 (Homo sapiens, UniProt Q9H2K8)
T11 construct: AssayQuant Technologies, Inc. (contract assay)
T11 sequence (Q9H2K8 1-898): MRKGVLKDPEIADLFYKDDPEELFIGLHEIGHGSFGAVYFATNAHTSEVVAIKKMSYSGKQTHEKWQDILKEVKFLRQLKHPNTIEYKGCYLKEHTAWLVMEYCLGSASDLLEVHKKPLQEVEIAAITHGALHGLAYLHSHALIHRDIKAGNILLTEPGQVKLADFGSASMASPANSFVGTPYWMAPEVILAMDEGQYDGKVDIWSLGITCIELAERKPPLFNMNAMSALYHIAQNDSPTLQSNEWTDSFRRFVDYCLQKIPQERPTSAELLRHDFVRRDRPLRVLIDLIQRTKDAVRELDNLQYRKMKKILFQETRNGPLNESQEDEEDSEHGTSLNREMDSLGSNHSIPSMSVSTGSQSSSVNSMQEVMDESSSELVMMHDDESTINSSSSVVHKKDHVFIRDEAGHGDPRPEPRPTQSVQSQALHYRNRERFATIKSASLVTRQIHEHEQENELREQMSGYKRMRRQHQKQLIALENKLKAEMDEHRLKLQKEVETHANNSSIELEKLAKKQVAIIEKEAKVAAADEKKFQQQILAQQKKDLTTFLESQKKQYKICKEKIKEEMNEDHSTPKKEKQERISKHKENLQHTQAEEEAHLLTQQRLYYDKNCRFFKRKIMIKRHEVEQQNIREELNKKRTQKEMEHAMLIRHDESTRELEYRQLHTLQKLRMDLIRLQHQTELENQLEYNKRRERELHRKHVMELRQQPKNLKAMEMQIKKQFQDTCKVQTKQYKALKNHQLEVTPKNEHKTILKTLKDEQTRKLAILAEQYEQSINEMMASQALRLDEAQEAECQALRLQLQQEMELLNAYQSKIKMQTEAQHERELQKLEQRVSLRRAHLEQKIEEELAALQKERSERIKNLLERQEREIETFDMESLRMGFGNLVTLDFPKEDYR
In short: as §1

Sequence of PTK2 (Q05397 whole entry, species assumed): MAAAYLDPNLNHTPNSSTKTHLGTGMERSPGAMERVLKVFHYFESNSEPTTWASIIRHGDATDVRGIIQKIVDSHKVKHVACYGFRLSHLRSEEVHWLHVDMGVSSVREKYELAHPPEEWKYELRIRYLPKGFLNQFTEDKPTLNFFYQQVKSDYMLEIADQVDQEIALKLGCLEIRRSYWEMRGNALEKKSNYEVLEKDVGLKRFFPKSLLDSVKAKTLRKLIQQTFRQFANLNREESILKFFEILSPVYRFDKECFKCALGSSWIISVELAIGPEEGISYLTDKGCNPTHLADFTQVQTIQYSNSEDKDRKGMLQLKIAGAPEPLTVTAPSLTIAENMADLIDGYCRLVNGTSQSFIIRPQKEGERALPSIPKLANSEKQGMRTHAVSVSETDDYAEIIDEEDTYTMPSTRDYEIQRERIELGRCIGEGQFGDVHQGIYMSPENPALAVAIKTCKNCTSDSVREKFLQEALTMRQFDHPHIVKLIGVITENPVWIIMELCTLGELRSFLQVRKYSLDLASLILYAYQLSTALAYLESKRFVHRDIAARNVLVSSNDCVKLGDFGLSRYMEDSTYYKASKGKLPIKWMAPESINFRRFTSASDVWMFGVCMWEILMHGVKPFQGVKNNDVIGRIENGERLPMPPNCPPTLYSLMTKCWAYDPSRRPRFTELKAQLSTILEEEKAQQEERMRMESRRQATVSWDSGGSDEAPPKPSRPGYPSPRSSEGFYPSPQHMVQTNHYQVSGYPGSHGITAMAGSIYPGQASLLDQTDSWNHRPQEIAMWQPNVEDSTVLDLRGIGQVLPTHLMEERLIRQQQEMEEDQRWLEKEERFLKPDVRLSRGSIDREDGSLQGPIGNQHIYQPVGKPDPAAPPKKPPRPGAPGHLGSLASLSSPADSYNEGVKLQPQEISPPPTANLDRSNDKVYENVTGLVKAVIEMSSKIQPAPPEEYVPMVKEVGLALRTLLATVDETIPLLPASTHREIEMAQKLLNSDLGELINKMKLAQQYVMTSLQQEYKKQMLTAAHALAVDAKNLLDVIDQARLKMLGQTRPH
T9 sequence (Q15759 whole entry): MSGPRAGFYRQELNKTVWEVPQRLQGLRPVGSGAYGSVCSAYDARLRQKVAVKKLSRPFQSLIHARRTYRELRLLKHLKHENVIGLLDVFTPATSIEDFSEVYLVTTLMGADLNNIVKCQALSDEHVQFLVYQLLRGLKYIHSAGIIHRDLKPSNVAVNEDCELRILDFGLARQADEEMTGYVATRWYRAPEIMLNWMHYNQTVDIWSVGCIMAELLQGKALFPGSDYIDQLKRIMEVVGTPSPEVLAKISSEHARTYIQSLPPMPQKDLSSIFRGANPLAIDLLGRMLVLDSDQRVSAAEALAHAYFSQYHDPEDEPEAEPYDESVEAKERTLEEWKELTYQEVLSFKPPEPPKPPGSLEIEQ
Sequence of AKT1 (P31749 whole entry): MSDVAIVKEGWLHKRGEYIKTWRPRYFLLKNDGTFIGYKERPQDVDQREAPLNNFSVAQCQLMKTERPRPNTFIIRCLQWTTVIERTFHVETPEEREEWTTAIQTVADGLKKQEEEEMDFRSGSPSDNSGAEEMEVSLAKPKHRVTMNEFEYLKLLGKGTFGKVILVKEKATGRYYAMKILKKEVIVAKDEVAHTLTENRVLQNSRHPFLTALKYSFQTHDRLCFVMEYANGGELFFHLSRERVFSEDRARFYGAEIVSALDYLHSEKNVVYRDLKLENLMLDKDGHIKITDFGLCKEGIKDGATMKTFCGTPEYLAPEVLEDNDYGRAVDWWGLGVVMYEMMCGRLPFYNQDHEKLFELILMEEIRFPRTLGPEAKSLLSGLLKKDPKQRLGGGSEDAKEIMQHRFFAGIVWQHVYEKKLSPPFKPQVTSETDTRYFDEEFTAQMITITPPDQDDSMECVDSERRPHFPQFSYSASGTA
T1 sequence (Q00526 whole entry, species assumed): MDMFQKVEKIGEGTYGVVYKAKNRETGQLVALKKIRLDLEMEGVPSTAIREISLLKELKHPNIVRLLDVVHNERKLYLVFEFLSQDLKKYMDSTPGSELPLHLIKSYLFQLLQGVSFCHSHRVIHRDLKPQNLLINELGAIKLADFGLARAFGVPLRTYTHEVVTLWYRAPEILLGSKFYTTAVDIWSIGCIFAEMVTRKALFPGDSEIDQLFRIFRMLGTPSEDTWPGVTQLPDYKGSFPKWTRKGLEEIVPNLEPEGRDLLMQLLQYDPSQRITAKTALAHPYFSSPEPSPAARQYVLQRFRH
T1 sequence (P24864 whole entry partner, species assumed): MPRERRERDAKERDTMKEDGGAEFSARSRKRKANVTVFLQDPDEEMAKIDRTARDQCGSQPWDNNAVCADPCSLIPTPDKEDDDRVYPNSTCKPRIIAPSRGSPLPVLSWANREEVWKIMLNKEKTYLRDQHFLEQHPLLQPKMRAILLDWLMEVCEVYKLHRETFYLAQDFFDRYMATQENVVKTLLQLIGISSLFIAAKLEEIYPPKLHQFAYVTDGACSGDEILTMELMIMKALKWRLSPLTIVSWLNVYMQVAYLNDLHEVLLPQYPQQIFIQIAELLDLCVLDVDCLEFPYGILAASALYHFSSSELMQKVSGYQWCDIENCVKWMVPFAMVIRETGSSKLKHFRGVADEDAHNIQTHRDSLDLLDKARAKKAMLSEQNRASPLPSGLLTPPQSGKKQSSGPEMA
T4 sequence (P19525 whole entry): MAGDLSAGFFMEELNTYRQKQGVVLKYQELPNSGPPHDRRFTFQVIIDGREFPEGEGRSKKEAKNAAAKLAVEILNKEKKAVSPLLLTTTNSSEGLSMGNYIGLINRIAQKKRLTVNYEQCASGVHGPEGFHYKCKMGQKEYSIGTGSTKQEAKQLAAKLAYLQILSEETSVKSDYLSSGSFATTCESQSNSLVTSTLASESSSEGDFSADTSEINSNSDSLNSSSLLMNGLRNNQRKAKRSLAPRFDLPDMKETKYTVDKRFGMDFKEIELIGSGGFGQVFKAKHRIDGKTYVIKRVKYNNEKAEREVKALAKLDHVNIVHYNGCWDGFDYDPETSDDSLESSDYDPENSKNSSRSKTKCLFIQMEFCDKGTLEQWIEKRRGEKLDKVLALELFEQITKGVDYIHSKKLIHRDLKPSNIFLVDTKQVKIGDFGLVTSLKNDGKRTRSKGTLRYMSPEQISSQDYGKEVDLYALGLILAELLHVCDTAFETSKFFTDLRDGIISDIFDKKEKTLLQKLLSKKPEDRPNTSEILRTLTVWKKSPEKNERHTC
T7 sequence (O60674 849-1124 limits assumed, species assumed): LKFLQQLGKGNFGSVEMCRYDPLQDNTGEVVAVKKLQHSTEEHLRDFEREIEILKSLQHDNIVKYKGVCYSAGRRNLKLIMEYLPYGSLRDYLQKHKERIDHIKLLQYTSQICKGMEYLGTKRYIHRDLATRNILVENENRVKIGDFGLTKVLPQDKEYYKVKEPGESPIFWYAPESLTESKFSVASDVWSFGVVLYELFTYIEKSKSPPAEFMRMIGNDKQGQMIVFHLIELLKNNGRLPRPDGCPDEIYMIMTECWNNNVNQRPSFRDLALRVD
T6 sequence (P49840 whole entry, species assumed): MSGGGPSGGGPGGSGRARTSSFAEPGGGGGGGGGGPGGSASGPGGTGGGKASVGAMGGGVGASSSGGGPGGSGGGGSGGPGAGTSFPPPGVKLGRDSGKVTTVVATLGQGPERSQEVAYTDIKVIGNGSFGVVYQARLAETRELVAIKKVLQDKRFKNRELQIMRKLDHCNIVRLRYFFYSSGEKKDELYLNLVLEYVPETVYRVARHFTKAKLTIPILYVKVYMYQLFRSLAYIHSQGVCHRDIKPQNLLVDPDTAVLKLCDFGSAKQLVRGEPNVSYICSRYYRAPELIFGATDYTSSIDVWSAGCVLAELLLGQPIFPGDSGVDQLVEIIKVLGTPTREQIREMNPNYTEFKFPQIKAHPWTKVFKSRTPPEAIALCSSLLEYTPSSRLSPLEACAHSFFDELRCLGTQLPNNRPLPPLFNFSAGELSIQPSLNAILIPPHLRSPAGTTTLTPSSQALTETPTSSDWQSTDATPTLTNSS
T5 sequence (P43250 whole entry, species assumed): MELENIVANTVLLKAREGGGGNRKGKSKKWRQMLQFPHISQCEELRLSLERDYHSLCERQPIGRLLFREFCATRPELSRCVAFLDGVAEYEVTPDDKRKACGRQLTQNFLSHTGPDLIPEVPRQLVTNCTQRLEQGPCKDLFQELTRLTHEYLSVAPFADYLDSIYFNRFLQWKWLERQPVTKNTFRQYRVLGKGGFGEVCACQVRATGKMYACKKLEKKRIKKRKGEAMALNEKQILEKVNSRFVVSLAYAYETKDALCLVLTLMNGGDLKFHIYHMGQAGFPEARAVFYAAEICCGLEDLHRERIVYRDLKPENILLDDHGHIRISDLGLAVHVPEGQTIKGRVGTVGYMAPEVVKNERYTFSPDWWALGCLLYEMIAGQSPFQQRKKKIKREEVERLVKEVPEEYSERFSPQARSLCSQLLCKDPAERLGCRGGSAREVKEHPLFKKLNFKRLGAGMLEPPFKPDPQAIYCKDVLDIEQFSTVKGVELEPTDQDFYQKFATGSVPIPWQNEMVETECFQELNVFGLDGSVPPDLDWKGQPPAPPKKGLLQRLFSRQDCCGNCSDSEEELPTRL
T3 sequence (O43293 whole entry, species assumed): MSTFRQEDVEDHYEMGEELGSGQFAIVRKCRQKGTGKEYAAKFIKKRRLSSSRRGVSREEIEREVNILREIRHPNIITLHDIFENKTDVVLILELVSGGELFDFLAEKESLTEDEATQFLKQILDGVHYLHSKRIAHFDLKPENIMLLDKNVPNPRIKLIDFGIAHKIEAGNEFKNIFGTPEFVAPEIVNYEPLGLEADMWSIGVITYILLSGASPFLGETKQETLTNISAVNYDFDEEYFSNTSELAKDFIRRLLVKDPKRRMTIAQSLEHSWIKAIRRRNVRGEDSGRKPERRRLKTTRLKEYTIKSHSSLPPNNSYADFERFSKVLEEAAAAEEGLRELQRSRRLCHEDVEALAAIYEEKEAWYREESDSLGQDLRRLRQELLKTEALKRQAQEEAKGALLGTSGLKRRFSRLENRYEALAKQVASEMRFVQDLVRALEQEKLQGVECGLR

## C=CC(=O)N1CCCC(c2c(F)cc(C(N)=O)c3[nH]c4c(c23)CCCCC4)C1 (single isomer, unassigned) [Compound 5-6]
AKT1
  inhibition at 1 µM: 20%
CDK3/E1
  inhibition at 1 µM: -15.3%
CDK4/D3
  inhibition at 1 µM: -4.9%
DAPK3
  inhibition at 1 µM: 25.9%
EIF2AK2/PKR
  inhibition at 1 µM: -28%
GRK6
  inhibition at 1 µM: 8%
GSK3A
  inhibition at 1 µM: 2.9%
JAK2(JH1)
  inhibition at 1 µM: 11.4%
MAP3K2
  inhibition at 1 µM: -19%
MAPK11/P38B
  inhibition at 1 µM: -3.3%
PTK2
  inhibition at 1 µM: -69.1%
SK2
  inhibition at 1 µM: -0.1%
TAOK3
  inhibition at 1 µM: 14.1%

## C=CC(=O)N1CCC[C@@H](c2c(F)cc(C(N)=O)c3[nH]c4c(c23)CC2(CC4)CC2)C1 [Compound 6-2, (S)-5-(1-acryloylpiperidin-3-yl)-6-fluoro-1,2,4,9-tetrahydrospiro[carbazole-3,1′-cyclopropane]-8-carboxamide]
AKT1
  inhibition at 1 µM: -17%
CDK3/E1
  inhibition at 1 µM: 13.7%
CDK4/D3
  inhibition at 1 µM: -13%
DAPK3
  inhibition at 1 µM: 10%
EIF2AK2/PKR
  inhibition at 1 µM: -1.6%
GRK6
  inhibition at 1 µM: -3.1%
GSK3A
  inhibition at 1 µM: -5.1%
JAK2(JH1)
  inhibition at 1 µM: 10.3%
MAP3K2
  inhibition at 1 µM: -6.6%
MAPK11/P38B
  inhibition at 1 µM: 32.9%
PTK2
  inhibition at 1 µM: 16.5%
SK2
  inhibition at 1 µM: 7.7%
TAOK3
  inhibition at 1 µM: 1.6%

## C=CC(=O)N1CCC[C@@H](c2c(F)cc(C(N)=O)c3[nH]c4c(c23)CCC4)C1 [Compound 10-2, (S)-8-(1-acryloylpiperidin-3-yl)-7-fluoro-1,2,3,4-tetrahydrocyclo-penta[b]indole-5-carboxamide]
AKT1
  inhibition at 1 µM: -14.8%
CDK3/E1
  inhibition at 1 µM: -7.7%
CDK4/D3
  inhibition at 1 µM: -19.5%
DAPK3
  inhibition at 1 µM: -4.9%
EIF2AK2/PKR
  inhibition at 1 µM: 65.5%
GRK6
  inhibition at 1 µM: -1.9%
GSK3A
  inhibition at 1 µM: -37.7%
JAK2(JH1)
  inhibition at 1 µM: -0.8%
MAP3K2
  inhibition at 1 µM: 15.7%
MAPK11/P38B
  inhibition at 1 µM: 5.7%
PTK2
  inhibition at 1 µM: -14.6%
SK2
  inhibition at 1 µM: 23.9%
TAOK3
  inhibition at 1 µM: -2.9%
